Measured values from paper PMC8002271, “Synthesis and Biological Activity Evaluation of Coumarin-3-Carboxamide Derivatives” (Molecules, 2021).
Values after ≈ are worked out from the molar mass of the structure shown. Like-named read-outs stand apart in the source and are kept apart here.

Assays:
B. cereus TISTR 2372 = test: Antibacterial microbroth dilution MIC, B. cereus; format: cell-based; details: Bacillus cereus, read-out: MIC B. cereus
Experimental: (§1) The antibacterial activities of coumarin derivatives 10, 12, 13, 14a–g, and 15 were evaluated against five reference standard bacteria, both gram-positive and gram-negative: B. cereus TISTR 2372, B. subtilis TISTR 001, S. aureus TISTR 2392, E. coli TISTR 073, and S. typhimurium TISTR 2519, using a standard microbroth dilution method.
(§2) The MIC values of coumarin derivatives 10, 12, 13, 14a–g, and 15 were determined through the microbroth dilution method in 96-well microtitre plates. The bacterial cultures were prepared from overnight cultures on nutrient broth (NB) at 37 °C for 24 h by diluting in NB compared with 0.5 McFarland. Coumarin derivatives 10, 12, 13, 14a–g, and 15 (5000 µg/mL) were prepared in EtOH, and 128 µg/mL of these were added to the first wells. Two-fold serial dilutions were prepared, and final concentrations of 128 to 1 µg/mL were achieved. The positive controls for penicillin G were determined, with the final concentrations from 128 to 1 µg/mL. In addition, an extra row of EtOH was used as a vehicle control to determine its possible inhibitory activity. Finally, 10 µL of bacterial suspension was added to each well. After the bacteria were incubated at 37 °C for 24 h, the microtitre plates were visually examined for bacterial growth; the growth rate was monitored at the optical density at 600 nm with a microplate reader.

B. subtilis TISTR 001 = test: Antibacterial microbroth dilution MIC, B. subtilis; format: cell-based; details: Bacillus subtilis, read-out: MIC B. subtilis
Experimental: as §1, §2

S. aureus TISTR 2392 = test: Antibacterial microbroth dilution MIC, S. aureus; format: cell-based; details: Staphylococcus aureus, read-out: MIC S. aureus
Experimental: as §1, §2

E. coli TISTR 073 = test: Antibacterial microbroth dilution MIC, E. coli; format: cell-based; details: Escherichia coli, read-out: MIC E. coli
Experimental: as §1, §2

[1] = test system: S. typhimurium TISTR 2519; test: Antibacterial microbroth dilution MIC, S. typhimurium; format: cell-based; details: Salmonella enterica, 24 h, read-out: MIC S. typhimurium
Experimental: as §1, §2

HepG2 cancer cell line = test: MTT cell viability assay, HepG2; format: cell-based; details: read-out: IC50 HepG2
Experimental: (§3) The cell viability assays of coumarin derivatives 10, 12, 13, 14a–g, and 15 were conducted against three cancer cell lines (HepG2, HeLa, and MDA-MB-231) and one normal cell line (LLC-MK2) using an MTT assay.
(§4) Stock solutions of coumarin derivatives 10, 12a, 13, 14a–g, and 15 were prepared in EtOH at a concentration of 5000 µg/mL. Prior to use, the stock solutions were further diluted to 128 µg/mL and added to the first wells. Two-fold serial dilutions were prepared, and final concentrations of 128 to 1 µg/mL in culture medium were achieved. Cells were seeded at a density of 5 × 10^4 cells/well in a 96-well plate and incubated for 16 h, followed by treatment with the test compounds. The control culture contained the carrier solvent of 2.5% dimethyl sulfoxide (DMSO). After 24 h, HepG2, HeLa, MDA-MB-231, and LLC-MK2 cells were then incubated with MTT (500 μg/mL) for 4 h. Then, DMSO was added to dissolve the blue formazan crystals formed, which were formed as a result of the action of cellular oxidoreductase enzymes on the MTT dye. Finally, the optical density at 450 nm was determined using a microplate reader.

HeLa cancer cell line = test: MTT cell viability assay, HeLa; format: cell-based; details: read-out: IC50 HeLa
Experimental: as §3, §4

LLC-MK2 normal cell line = test: MTT cell viability assay, LLC-MK2 normal cells; format: cell-based; details: Macaca mulatta, read-out: IC50 LLC-MK2
Experimental: as §3, §4

Helicobacter pylori = test system: Helicobacter pylori; set-up: method as in PMID 16377035; details: cited from earlier work
[2] = TISTR2372, Gram-positive, microbroth dilution, 37 °C, 24 h
[3] = TISTR001, Gram-positive, microbroth dilution, 37 °C, 24 h
[4] = TISTR2392, Gram-positive, microbroth dilution, 37 °C, 24 h
[5] = TISTR073, Gram-negative, microbroth dilution, 37 °C, 24 h
[6] = Gram-negative, microbroth dilution, 37 °C
[7] = Homo sapiens, HepG2, 24 h, cancer cell line, MTT assay, 24 h treatment
[8] = Homo sapiens, HeLa, 24 h, cancer cell line, MTT assay, 24 h treatment
[9] = LLC-MK2, normal cell line, MTT assay, 24 h treatment
[10] = cancer cell line, MTT assay, 24 h treatment

MIC (B. cereus TISTR 2372; [2]) [µg/mL]	MIC (B. subtilis TISTR 001; [3]) [µg/mL]	MIC (S. aureus TISTR 2392; [4]) [µg/mL]	MIC (E. coli TISTR 073; [5]) [µg/mL]	MIC [1, 6] [µg/mL]	IC50 (HepG2 cancer cell line; [7]) [µM]	IC50 (HeLa cancer cell line; [8]) [µM]	melting point [°C]	IC50 (HepG2 cancer cell line; [10]) [µM]	IC50 (HeLa cancer cell line; [10]) [µM]	Structure (SMILES)	MIC (B. cereus TISTR 2372; TISTR2372, 24 h) [µg/mL]	MIC (B. subtilis TISTR 001; TISTR001, 24 h) [µg/mL]	MIC (S. aureus TISTR 2392; TISTR2392, 24 h) [µg/mL]	MIC (E. coli TISTR 073; TISTR073, 24 h) [µg/mL]	MIC [1] [µg/mL]	IC50 (HepG2 cancer cell line; Homo sapiens, HepG2, 24 h) [µM]	IC50 (HeLa cancer cell line; Homo sapiens, HeLa, 24 h) [µM]	IC50 (LLC-MK2 normal cell line; LLC-MK2, 24 h) [µM]	IC50 (LLC-MK2 normal cell line; [9]) [µM]	MIC H. pylori (Helicobacter pylori) [µg/mL]
–	–	–	–	–	–	–	–	–	–	CC(C)=CCc1cc2ccc(=O)oc2cc1O [compound 15, 6-(3-Methyl-2-buteny1)-7-hydroxycoumarin]	> 128	> 128	> 128	> 128	> 128	9.13	13.5	6.87	–	–
> 128	> 128	> 128	> 128	> 128	30.3	14	282 to 283	–	–	CC(C)=CCc1cc2cc(C(=O)Nc3ccc(Cl)cc3)c(=O)oc2cc1O [14c, N-(4-Chlorophenyl)-7-hydroxy-6-(3-methylbut-2-en-1-yl)-2-oxo-2H-chromene-3-carboxamide]	–	–	–	–	–	–	–	–	66.8	–
> 128	> 128	> 128	> 128	> 128	2.62 to 4.85	0.39 to 0.75	259 to 261	4.85	0.75	CC(C)=CCc1cc2cc(C(=O)Nc3ccc(F)cc3)c(=O)oc2cc1O [14b, N-(4-Fluorophenyl)-7-hydroxy-6-(3-methylbut-2-en-1-yl)-2-oxo-2H-chromene-3-carboxamide]	–	–	–	–	–	–	–	–	> 100	–
> 128	> 128	> 128	> 128	> 128	2.35	> 100	187 to 188	–	–	CC1(C)C=Cc2cc3cc(C(=O)Nc4ccccc4)c(=O)oc3cc2O1 [compound 12, 8,8-dimethyl-2-oxo-N-phenyl-2H,8H-pyrano[3,2-g]chromene-3-carboxamide]	–	–	–	–	–	–	–	–	> 100	–
> 128	> 128	> 128	> 128	> 128	2.62 to 4.85	0.39 to 0.75	248 to 250	2.62	0.39	CC(C)=CCc1cc2cc(C(=O)Nc3cc(F)ccc3F)c(=O)oc2cc1O [14e, N-(2,5-Difluorophenyl)-7-hydroxy-6-(3-methylbut-2-en-1-yl)-2-oxo-2H-chromene-3-carboxamide]	–	–	–	–	–	–	–	–	1.33	–
–	–	–	–	–	1.91	1.18	–	–	–	COc1cccc2c1C(=O)c1c(O)c3c(c(O)c1C2=O)C[C@@](O)(C(=O)CO)C[C@@H]3O[C@H]1C[C@H](N)[C@H](O)[C@H](C)O1 [Doxorubicin, doxorubicin, reference compound]	–	–	–	–	–	–	–	–	63.5	–
–	–	–	–	–	–	–	–	–	–	O=C(O)c1ccc(NC(=O)c2cc3ccccc3oc2=O)cc1 [4a]	–	–	–	–	–	–	–	–	–	1 (≈ 3.23 µM)
128 (≈ 470 µM)	128 (≈ 470 µM)	64 (≈ 235 µM)	> 128	> 128	> 100	80.4	187 to 188	–	–	CC1(C)C=Cc2cc3cc(C(=O)O)c(=O)oc3cc2O1 [compound 10, 8,8-dimethyl-2-oxo-2H,8H-pyrano[3,2-g]chromene-3-carboxylic acid]	–	–	–	–	–	–	–	–	> 100	–
> 128	> 128	> 128	> 128	> 128	> 100	> 100	259 to 261	–	–	COc1ccc(NC(=O)c2cc3cc(CC=C(C)C)c(O)cc3oc2=O)cc1 [14g, 7-Hydroxy-N-(4-methoxyphenyl)-6-(3-methylbut-2-en-1-yl)-2-oxo-2H-chromene-3-carboxamide]	–	–	–	–	–	–	–	–	> 100	–
> 128	> 128	> 128	> 128	> 128	45.8	37.4	276 to 277	–	–	CC(C)=CCc1cc2cc(C(=O)Nc3ccc(Br)cc3)c(=O)oc2cc1O [14d, N-(4-Bromophenyl)-7-hydroxy-6-(3-methylbut-2-en-1-yl)-2-oxo-2H-chromene-3-carboxamide]	–	–	–	–	–	–	–	–	> 100	–
> 128	> 128	> 128	> 128	> 128	4.33	10.4	258 to 259	–	–	CC(C)=CCc1cc2cc(C(=O)Nc3ccccc3)c(=O)oc2cc1O [14a, 7-Hydroxy-6-(3-methylbut-2-en-1-yl)-2-oxo-N-phenyl-2H-chromene-3-carboxamide]	–	–	–	–	–	–	–	–	0.48	–
16 (≈ 47.8 µM)	2 (≈ 5.98 µM)	16 (≈ 47.8 µM)	32 (≈ 95.7 µM)	64 (≈ 191 µM)	–	–	–	–	–	CC1(C)S[C@@H]2[C@H](NC(=O)Cc3ccccc3)C(=O)N2[C@H]1C(=O)O [penicillin G, reference compound]	–	–	–	–	–	–	–	–	–	–
–	–	–	–	–	5.72	6.59	–	–	–	CN(C)c1ccc2cc3ccc(N(C)C)cc3nc2c1 [Acridine orange, acridine orange, reference compound]	–	–	–	–	–	–	–	–	82.3	–
32 (≈ 117 µM)	128 (≈ 467 µM)	64 (≈ 233 µM)	> 128	> 128	81.7	26.4	237 to 238	–	–	CC(C)=CCc1cc2cc(C(=O)O)c(=O)oc2cc1O [compound 13, 3-carboxy-6-(3-methyl-2-butenyl)-7-hydroxy-coumarin]	–	–	–	–	–	–	–	–	38	–
> 128	> 128	> 128	> 128	> 128	> 100	> 100	276 to 277	–	–	CC(C)=CCc1cc2cc(C(=O)Nc3ccc(C)cc3)c(=O)oc2cc1O [14f, 7-Hydroxy-6-(3-methylbut-2-en-1-yl)-2-oxo-N-(p-tolyl)-2H-chromene-3-carboxamide]	–	–	–	–	–	–	–	–	85.3	–
